Data taken from patent publication US20130131321A1, “LIGANDS FOR ANTIBODY AND Fc-FUSION PROTEIN PURIFICATION BY AFFINITY CHROMATOGRAPHY” (GRAFFINITY PHARMACEUTICALS GMBH, priority 2010, published 2013).
Like-named read-outs stand apart in the source and are kept apart here.

Legend:
Bevacizumab [1] = biological target: T1, Bevacizumab (Homo sapiens, UniProt P01857); experiment: Microtiter plate chromatography of resins, Bevacizumab whole IgG (bound, yield, selectivity); format: binding, humanized; conditions: for Bevacizumab IgG Bound (%): fraction of whole IgG Bevacizumab bound to resin; for Bevacizumab IgG Yield (%): mass of whole IgG Bevacizumab eluted / mass injected
T1 construct: fused on or other part: humanised anti-VEGF-A VH domain N-terminal of the gamma-1 constant region (engineered, no UniProt entry)
Experimental: (§1) Resins were assessed in packed mode by microtiter plate chromatography. For each column, approximately 30 μl of resin were transferred to a 384-well filter plate and sealed with appropriate top frits.
(§2) Columns were equilibrated with 6.7 column volumes (cv) of phosphate buffered saline (0.15 M NaCl, 20 mM sodium phosphate, pH 7.3; PBS) prior to injection. Either 3.3 cv of whole IgGs dissolved at 0.75 mg ml^−1, Fab or Fc fragments dissolved at 0.25 mg ml^−1 (all three in PBS) or host cell proteins (HCP) were injected onto columns. Antibody fragments of Bevacizumab (Fab and Fc) were prepared by cleavage of whole IgG with papain protease (3) according to the protocol of the manufacturer. […] Volumes transferred were spun through columns at 50 g for 1-2 min. During injection of samples, acceleration was reduced to 10 g and centrifugation time increased to 5-10 min. Effluent fractions were collected in 384-well plates and concentrations of protein analyzed by Bradford assay. Protein masses mi, mft and me (see below) were calculated as the product of fraction volume and measured protein concentration.
(§3) The fraction of ‘bound’ protein was calculated as the difference between the total mass of protein injected mi and the mass of protein detected in the flowthrough mft, divided by the total mass of protein injected.
(§4) The ‘yield’ of protein was calculated as the mass of protein eluted me, divided by the mass of protein injected mi.
(§5) The ‘selectivity’ of resins was calculated as the fraction of bound antibody BAb, divided by the fraction of bound host cell proteins BHCP.
(§6) the fraction of ‘bound’ protein and the ‘yield’ of protein were calculated for each resin based on data for whole IgG-antibodies. In the case of Bevacizumab fragments and host cell proteins, only the fraction of ‘bound’ protein is given. Selectivity of resins was calculated from data for Bevacizumab Whole IgG and host cell proteins. Due to limited experimental precision, selectivity was truncated beyond values of 10.

Bevacizumab [2] = experiment: as above; format: binding, humanized
Experimental: as §1, §2, §3, §4, §5, §6

Tocilizumab = experiment: Microtiter plate chromatography of resins, Tocilizumab (bound, yield); format: binding, humanized
Experimental: as §1, §2, §3, §4, §6

Palivizumab = experiment: Microtiter plate chromatography of resins, Palivizumab (bound, yield); format: binding, humanized
Experimental: as §1, §2, §3, §4, §6

[3] = system: human poly-IgG (h-poly-IgG); experiment: Microtiter plate chromatography of resins, human poly-IgG (bound, yield); format: binding
Experimental: as §1, §2, §3, §4, §6

host cell proteins (HCP) = experiment: Microtiter plate chromatography of resins, host cell proteins (bound); format: binding, CHO; conditions: host cell proteins
Experimental: Flowthrough from protein A chromatography (referred to as host cell proteins) was derived from the supernatant of antibody-producing CHO cell culture in serum-free medium.
as §1, §2, §3, §6

SMILES	Bevacizumab IgG Bound (%) (Bevacizumab [1])	Bevacizumab IgG Yield (%) (Bevacizumab [1])	Selectivity (Bevacizumab [2])	Tocilizumab Bound (%) (Tocilizumab)	Tocilizumab Yield (%) (Tocilizumab)	Palivizumab Bound (%) (Palivizumab)	Palivizumab Yield (%) (Palivizumab)	h-poly-IgG Bound (%) [3] [%]	h-poly-IgG Yield (%) [3] [%]	HCP Bound (%) (host cell proteins (HCP))	Selectivity (Bevacizumab [2]; fraction of bound Bevacizumab whole IgG / fraction of bound HCP, truncated beyond values of 10)
Cc1ccc(C(=O)NCCCN)cc1NC(=O)c1cc(-c2cccs2)n(C)n1 [Ligand L10, 4-Methyl-3-[1-methyl-5-(2-thienyl)pyrazol-3-yl]carboxamidobenzoic acid N-(3-aminopropyl)amide]	100	91	1.5	86	73	59	62	72	60	68	
COc1ccc(NC(=O)c2nn(C)c3ccccc23)cc1C(=O)NCCOCCOCC(=O)NCCOCCOCC(=O)NCCCN [Ligand L61, 8-{8-[2-Methoxy-5-(1-methylindazol-3-ylcarboxamido)phenylcarboxamido]-3,6-dioxaoctanoylamido}-3,6-dioxaoctanoic acid (3-amino-1-propyl)amide]	100	92	5.1	84	84	67	66	81	81	20	
COc1ccc(NC(=O)c2nnc(-c3ccco3)o2)cc1C(=O)NCCCN [Ligand L58, 5-[5-(2-Furyl)-1,3,4-oxadiazol-2-yl]carboxamido-2-methoxybenzoic acid (3-amino-1-propyl)amide]	100	90	4.3	100	100	97	83	98	93	23	
Cn1nc(C(=O)Nc2ccc(C(=O)NCCCN)cc2)cc1-c1ccco1 [Ligand L18, 4-[5-(2-Furyl)-1-methylpyrazol-3-yl]carboxamidobenzoic acid N-(3-aminopropyl)amide]	100	95	2.2	76	76	54	43	68	71	46	
COc1ccc(NC(=O)c2nn(CC(O)CO)c3ccccc23)cc1C(=O)NCCCN (racemic) [Ligand L40, (RS)-5-[1-(2,3-Dihydroxy-1-propyl)indazol-3-ylcarboxamido]-2-methoxybenzoic acid (3-amino-1-propyl)amide]	100	100	4.5	90	90	62	62	98	97	22	
COc1ccc(NC(=O)c2cn3ccsc3n2)cc1C(=O)NCCCC[C@H](NC(=O)c1cc(NC(=O)c2cn3ccsc3n2)ccc1OC)C(=O)NCCCN [Ligand L49, (S)-2,6-Bis[5-(Imidazo[2,1-b]thiazol-6-ylcarboxamido)-2-methoxyphenylcarboxamido]hexanoic acid (3-amino-1-propyl)amide]	100	88		99	97			88	88	17	6.1
COc1ccc(NC(=O)c2cn(C)c3ccccc23)cc1C(=O)NCCCN [Ligand L25, 2-Methoxy-5-(1-methylindol-3-yl)carboxamidobenzoic acid N-(3-aminopropyl)amide]	100	95	2.2	100	93	82	78	93	81	46	
